Patent publication US20230407243A1, “GENETIC PLATFORM TO INVESTIGATE THE FUNCTIONS OF BACTERIAL DRUG EFFLUX PUMPS” (priority 2022, published 2023)
Converted amounts (≈) assume the structure as drawn.

Tests used:
Format in all cases: cell-based, Escherichia coli
[1] = system: EKO-35 strains with integrated RND tripartite efflux pumps (AcrB, AcrEF, AcrD, and MdtEF) with pGDP2:emrE or empty pGDP-2; assay: Efflux pump interplay MIC profiling (pGDP2:emrE); details: for Interplay effect / MIC / Fold Change from EKO-35: Pore −
[2] = system: EKO-35-Pore strains with integrated AcrB, AcrEF, AcrD, MdtEF with pGDP2:emrE or empty pGDP-2; assay: Efflux pump interplay MIC profiling (pGDP2:emrE), porinated; details: for Interplay effect / MIC / Fold Change from EKO-35: Pore +
Excerpt: This plasmid enables single-copy genomic integration of a selected gene through integration into the nonessential araC gene within the arabinose operon (Cox, G. et al., 2022). All E. coli genes were amplified from E. coli BW25113 genomic DNA, and mexCD was amplified from P. aeruginosa PAO1, using a high-fidelity polymerase, followed by ligation into pINT2. Successful clones were verified using PCR (Primers: pLac-Fwd/pINT-Rev, Table 4) and confirmed via Sanger sequencing at The Centre for Applied Genomics (TCAG) (The Hospital for Sick Children) and the AAC (University of Guelph). For the interplay studies, this process was repeated using the pGDP2 plasmid (Cox, G. et al., 2022).
To enable comparison between efflux production in different genetic backgrounds, each efflux pump-encoding gene was also integrated into the genome of the wild-type BW25113 strain, the single gene deletion mutant from the Keio Collection, and EKO-35. Strains of interest were propagated on LB agar at 37° C. Cell inoculum was prepared using the colony resuspension method and applied to a 96-well well plate (VWR) in technical duplicate, and the minimum inhibitory concentrations were determined according to Clinical & Laboratory Standards Institute (CLSI) protocols in MHB II (Patel J. B. et al, 2015). The plates were incubated for 18 h (Multitron Shaker, Infors HT) at 37° C. with aeration at 900 rpm. The plates were equilibrated to room temperature before the OD600 nm was measured using a BioTek Synergy H1 microplate reader. For interplay profiling, blank subtracted OD600 nm values >0.1 were considered to represent growth.
To investigate, the EKO-35-Pore strains were profiled using the same approach.

[3] = system: EKO-35-Pore expressing the P. aeruginosa pump mexCD; assay: Checkerboard synergy (FICI), porinated strain
Method in brief: (§1)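 Inocula prepared from resuspended colonies were exposed to PAβN or NMP combined with antibiotics in MHB II checkerboards. Growth was scored by OD600 to define MICs. FICI then classified the interaction, with values under 0.5 counted as synergistic.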

[4] = system: EKO-35-Pore strains producing other efflux pumps; assay: Checkerboard synergy (FICI), porinated strain
Method in brief: as §1

[5] = EKO-35 mexCD Pore, NMP + antibiotic
[6] = EKO-35 mexCD Pore, PAβN + antibiotic
[7] = strain EKO-35 mexCD Pore, NMP + antibiotic
[8] = EKO-35 mdtEF Pore, NMP + antibiotic
[9] = EKO-35 mdtEF Pore, PAβN + antibiotic
[10] = EKO-35 mdtEF Pore, antibiotic alone (PAβN checkerboard)
[11] = EKO-35 mdtEF Pore, antibiotic in combination with PAβN
[12] = strain EKO-35 mdtEF Pore, NMP + antibiotic
[13] = strain EKO-35 mdtEF Pore, antibiotic alone
[14] = strain EKO-35 mdtEF Pore, antibiotic in combination with NMP

SMILES: C[n+]1c2cc(N)ccc2cc2ccc(N)cc21.[Cl-] [acriflavine]
- interplay of EmrE with tripartite efflux pumps on resistance ([1]; EKO-35, AcrB, AcrEF, AcrD, MdtEF combined with pEmrE): multiplicative effects
- Interplay effect ([1]; acrB with pEmrE): Multiplicative
- Interplay effect ([1]; acrD with pEmrE): Multiplicative
- Interplay effect ([1]; acrEF with pEmrE): Multiplicative
- Interplay effect ([1]; mdtEF with pEmrE): Multiplicative
- MIC ([1]; strain EKO-35): 0.098 µg/mL
- Fold Change from EKO-35 ([1]; strain EKO-35 pEmrE): 8
- MIC ([1]; strain EKO-35 pEmrE): 0.781 µg/mL
- Fold Change from EKO-35 ([1]; strain acrB pEmrE): 256
- MIC ([1]; strain acrB pEmrE): 25 µg/mL
- Fold Change from EKO-35 ([1]; strain acrB): 16
- MIC ([1]; strain acrB): 1.56 µg/mL
- Fold Change from EKO-35 ([1]; strain acrD pEmrE): 16
- MIC ([1]; strain acrD pEmrE): 1.56 µg/mL
- Fold Change from EKO-35 ([1]; strain acrD): 1
- MIC ([1]; strain acrD): 0.098 µg/mL
- Fold Change from EKO-35 ([1]; strain acrEF pEmrE): 128
- MIC ([1]; strain acrEF pEmrE): 12.5 µg/mL
- Fold Change from EKO-35 ([1]; strain acrEF): 8
- MIC ([1]; strain acrEF): 0.781 µg/mL
- Fold Change from EKO-35 ([1]; strain mdtEF pEmrE): 16
- MIC ([1]; strain mdtEF pEmrE): 1.56 µg/mL
- Fold Change from EKO-35 ([1]; strain mdtEF): 1
- MIC ([1]; strain mdtEF): 0.098 µg/mL
- resistance conferred by AcrD alone or in combination with EmrE ([2]; EKO-35-Pore): did not increase resistance
- interplay of EmrE with tripartite efflux pumps on resistance ([2]; EKO-35-Pore, AcrB, AcrEF, AcrD, MdtEF combined with pEmrE): Interplay was maintained
- interplay of EmrE with AcrD on resistance ([2]; EKO-35-Pore, AcrD with EmrE): multiplicative effect was lost
- Interplay effect ([2]; acrB with pEmrE): Multiplicative
- Interplay effect ([2]; acrEF with pEmrE): Multiplicative
- Interplay effect ([2]; mdtEF with pEmrE): Multiplicative
- MIC ([2]; strain EKO-35): 0.049 µg/mL
- Fold Change from EKO-35 ([2]; strain EKO-35 pEmrE): 16
- MIC ([2]; strain EKO-35 pEmrE): 0.781 µg/mL
- Fold Change from EKO-35 ([2]; strain acrB pEmrE): 256
- MIC ([2]; strain acrB pEmrE): 12.5 µg/mL
- Fold Change from EKO-35 ([2]; strain acrB): 16
- MIC ([2]; strain acrB): 0.781 µg/mL
- Fold Change from EKO-35 ([2]; strain acrD pEmrE): 16
- MIC ([2]; strain acrD pEmrE): 0.781 µg/mL
- Fold Change from EKO-35 ([2]; strain acrD): 2
- MIC ([2]; strain acrD): 0.098 µg/mL
- Fold Change from EKO-35 ([2]; strain acrEF pEmrE): 128
- MIC ([2]; strain acrEF pEmrE): 6.25 µg/mL
- Fold Change from EKO-35 ([2]; strain acrEF): 16
- MIC ([2]; strain acrEF): 0.781 µg/mL
- Fold Change from EKO-35 ([2]; strain mdtEF pEmrE): 32
- MIC ([2]; strain mdtEF pEmrE): 1.56 µg/mL
- Fold Change from EKO-35 ([2]; strain mdtEF): 4
- MIC ([2]; strain mdtEF): 0.195 µg/mL

SMILES: CC[C@H]1OC(=O)[C@H](C)[C@@H](O[C@H]2C[C@@](C)(OC)[C@@H](O)[C@H](C)O2)[C@H](C)[C@@H](O[C@@H]2O[C@H](C)C[C@H](N(C)C)[C@H]2O)[C@](C)(O)C[C@@H](C)C(=O)[C@H](C)[C@@H](O)[C@]1(C)O [erythromycin]
- Effect [3, 5]: Additive
- FICI [3, 5]: 0.565
- Effect [3, 6]: Synergistic
- FICI [3, 6]: 0.385
- MICb Alone ([3]; EKO-35 mexCD Pore, antibiotic alone (PAβN checkerboard)): 0.5 µg/mL
- MICb Combined ([3]; EKO-35 mexCD Pore, antibiotic in combination with PAβN): 0.13 µg/mL
- Effect [3, 7]: Additive (additive (FICI >0.5-1.0))
- FICI [3, 7]: 0.565
- MICb Alone ([3]; strain EKO-35 mexCD Pore, antibiotic alone): 2 µg/mL
- MICb Combined ([3]; strain EKO-35 mexCD Pore, antibiotic in combination with NMP): 0.13 µg/mL
- Effect [4, 8]: Additive
- Effect [4, 9]: Synergistic
- FICI [4, 9]: 0.185
- MICb Alone [4, 10]: 1 µg/mL
- MICb Combined [4, 11]: 0.06 µg/mL
- Effect [4, 12]: Additive (additive (FICI >0.5-1.0))
- MICb Alone [4, 13]: 8 µg/mL
- MICb Combined [4, 14]: 1 µg/mL

SMILES: CC[n+]1c(-c2ccccc2)c2cc(N)ccc2c2ccc(N)cc21 [ethidium bromide]
- MIC ([1]; strain EKO-35): 0.122 µg/mL
- Fold Change from EKO-35 ([1]; strain EKO-35 pEmrE): 4
- MIC ([1]; strain EKO-35 pEmrE): 0.488 µg/mL
- Fold Change from EKO-35 ([1]; strain acrB pEmrE): 256
- MIC ([1]; strain acrB pEmrE): 31.2 µg/mL
- Fold Change from EKO-35 ([1]; strain acrB): 64
- MIC ([1]; strain acrB): 7.81 µg/mL
- Fold Change from EKO-35 ([1]; strain acrD pEmrE): 16
- MIC ([1]; strain acrD pEmrE): 1.95 µg/mL
- Fold Change from EKO-35 ([1]; strain acrD): 2
- MIC ([1]; strain acrD): 0.244 µg/mL
- Fold Change from EKO-35 ([1]; strain acrEF pEmrE): 64
- MIC ([1]; strain acrEF pEmrE): 7.81 µg/mL
- Fold Change from EKO-35 ([1]; strain acrEF): 16
- MIC ([1]; strain acrEF): 1.95 µg/mL
- Fold Change from EKO-35 ([1]; strain mdtEF pEmrE): 32
- MIC ([1]; strain mdtEF pEmrE): 3.91 µg/mL
- Fold Change from EKO-35 ([1]; strain mdtEF): 8
- MIC ([1]; strain mdtEF): 0.977 µg/mL
- MIC ([2]; strain EKO-35): 0.061 µg/mL
- Fold Change from EKO-35 ([2]; strain EKO-35 pEmrE): 4
- Fold Change from EKO-35 ([2]; strain acrB pEmrE): 256
- MIC ([2]; strain acrB pEmrE): 15.6 µg/mL
- Fold Change from EKO-35 ([2]; strain acrB): 64
- MIC ([2]; strain acrB): 3.91 µg/mL
- Fold Change from EKO-35 ([2]; strain acrD pEmrE): 8
- Fold Change from EKO-35 ([2]; strain acrD): 1
- MIC ([2]; strain acrD): 0.061 µg/mL
- Fold Change from EKO-35 ([2]; strain acrEF pEmrE): 64
- MIC ([2]; strain acrEF pEmrE): 3.91 µg/mL
- Fold Change from EKO-35 ([2]; strain acrEF): 16
- Fold Change from EKO-35 ([2]; strain mdtEF pEmrE): 32
- MIC ([2]; strain mdtEF pEmrE): 1.95 µg/mL
- Fold Change from EKO-35 ([2]; strain mdtEF): 8

SMILES: CC(=O)O[C@H]1C[C@@]2(C)[C@@H](C[C@@H](O)[C@H]3[C@@]4(C)CC[C@@H](O)[C@@H](C)[C@@H]4CC[C@@]32C)/C1=C(\CCC=C(C)C)C(=O)O [fusidic acid]
- Effect [4, 8]: Additive
- FICI [4, 8]: 0.750
- Effect [4, 9]: Synergistic
- FICI [4, 9]: 0.250
- MICb Alone [4, 10]: 16 µg/mL
- MICb Combined [4, 11]: 2 µg/mL
- Effect [4, 12]: Additive (additive (FICI >0.5-1.0))
- FICI [4, 12]: 0.750
- MICb Alone [4, 13]: 8 µg/mL
- MICb Combined [4, 14]: 2 µg/mL

SMILES: CN(C)c1ccc(O)c2c1C[C@H]1C[C@H]3[C@H](N(C)C)C(O)=C(C(N)=O)C(=O)[C@@]3(O)C(O)=C1C2=O [minocycline]
- MIC ([1]; strain EKO-35): 1.25 µg/mL (≈ 2.73 µM)
- Fold Change from EKO-35 ([1]; strain EKO-35 pEmrE): 1
- MIC ([1]; strain EKO-35 pEmrE): 1.25 µg/mL (≈ 2.73 µM)
- Fold Change from EKO-35 ([1]; strain acrB pEmrE): 4
- MIC ([1]; strain acrB pEmrE): 5 µg/mL (≈ 10.9 µM)
- Fold Change from EKO-35 ([1]; strain acrB): 4
- MIC ([1]; strain acrB): 5 µg/mL (≈ 10.9 µM)
- Fold Change from EKO-35 ([1]; strain acrD pEmrE): 2
- MIC ([1]; strain acrD pEmrE): 2.5 µg/mL (≈ 5.46 µM)
- Fold Change from EKO-35 ([1]; strain acrD): 2
- MIC ([1]; strain acrD): 2.5 µg/mL (≈ 5.46 µM)
- Fold Change from EKO-35 ([1]; strain acrEF pEmrE): 4
- MIC ([1]; strain acrEF pEmrE): 5 µg/mL (≈ 10.9 µM)
- Fold Change from EKO-35 ([1]; strain acrEF): 2
- MIC ([1]; strain acrEF): 2.5 µg/mL (≈ 5.46 µM)
- Fold Change from EKO-35 ([1]; strain mdtEF pEmrE): 2
- MIC ([1]; strain mdtEF pEmrE): 2.5 µg/mL (≈ 5.46 µM)
- Fold Change from EKO-35 ([1]; strain mdtEF): 2
- MIC ([1]; strain mdtEF): 2.5 µg/mL (≈ 5.46 µM)
- MIC ([2]; strain EKO-35): 0.63 µg/mL
- Fold Change from EKO-35 ([2]; strain EKO-35 pEmrE): 1
- MIC ([2]; strain EKO-35 pEmrE): 0.63 µg/mL
- Fold Change from EKO-35 ([2]; strain acrB pEmrE): 4
- MIC ([2]; strain acrB pEmrE): 2.5 µg/mL
- Fold Change from EKO-35 ([2]; strain acrB): 4
- MIC ([2]; strain acrB): 2.5 µg/mL
- Fold Change from EKO-35 ([2]; strain acrD pEmrE): 2
- Fold Change from EKO-35 ([2]; strain acrD): 2
- Fold Change from EKO-35 ([2]; strain acrEF pEmrE): 2
- Fold Change from EKO-35 ([2]; strain acrEF): 2
- Fold Change from EKO-35 ([2]; strain mdtEF pEmrE): 2
- Fold Change from EKO-35 ([2]; strain mdtEF): 2
